Measurements: PubChem BioAssay AID248 (DTP/NCI, 2004)
Toxic doses and inconclusive results are not listed. No stated cut-off is given here; in the data, active means T/C of 150% or more; inactive means T/C below 125%.

Test system: L1210 leukemia ip in BDF1 mice, survival T/C
Experiment: NCI In Vivo Anticancer Drug Screen. Data for tumor model L1210 Leukemia (intraperitoneal) in B6D2F1 (BDF1) mice
Settings: endpoint: mean survival time, higher = longer survival
How it was run: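 Antitumor effect is assessed in tumor-bearing animals. Survival in the compound arm is compared with a vehicle-dosed control arm and expressed as their quotient.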

[1] = dose: 50.0 mg/kg/injection, schedule: Q01DX009 (ip), vehicle: Klucel (hydroxypropylcellulose) (HPC)
[2] = dose: 100.0 mg/kg/injection, schedule: Q01DX009 (ip), vehicle: Klucel (hydroxypropylcellulose) (HPC)
[3] = dose: 200.0 mg/kg/injection, schedule: Q01DX009 (ip), vehicle: Klucel (hydroxypropylcellulose) (HPC)

Measured: T/C

O=C1CCCCC1CCCBr (centres undefined)
inactive: dose: 100.0 mg/kg/injection, schedule: Q01DX001 (ip), vehicle: saline with Tween-80 102 % of control | dose: 200.0 mg/kg/injection, schedule: Q01DX001 (ip), vehicle: saline with Tween-80 98 % of control | dose: 400.0 mg/kg/injection, schedule: Q01DX001 (ip), vehicle: saline with Tween-80 95 % of control

CC(=O)OCc1cc2ccccc2nc1C
inactive: dose: 100.0 mg/kg/injection, schedule: Q01DX009 (ip), vehicle: saline with Tween-80 110 % of control | dose: 100.0 mg/kg/injection, schedule: Q04DX003 (ip), vehicle: saline with Tween-80 102 % of control | dose: 200.0 mg/kg/injection, schedule: Q01DX009 (ip), vehicle: saline with Tween-80 104 % of control | dose: 200.0 mg/kg/injection, schedule: Q04DX003 (ip), vehicle: saline with Tween-80 96 % of control | dose: 400.0 mg/kg/injection, schedule: Q01DX009 (ip), vehicle: saline with Tween-80 98 % of control | dose: 400.0 mg/kg/injection, schedule: Q04DX003 (ip), vehicle: saline with Tween-80 96 % of control

CSc1ccc(N=Cc2ccc3c(c2)OCO3)cc1
inactive: [1] 103 % of control | [2] 97 % of control | dose: 100.0 mg/kg/injection, schedule: Q04DX003 (ip), vehicle: Klucel (hydroxypropylcellulose) (HPC) 102 % of control | [3] 99 % of control | dose: 200.0 mg/kg/injection, schedule: Q04DX003 (ip), vehicle: Klucel (hydroxypropylcellulose) (HPC) 107 % of control | dose: 400.0 mg/kg/injection, schedule: Q04DX003 (ip), vehicle: Klucel (hydroxypropylcellulose) (HPC) 94 % of control

CC(CN(C)C)CN1c2ccccc2Sc2ccc(C(F)(F)F)cc21 (centres undefined)
inactive: dose: 0.78 mg/kg/injection, schedule: Q04DX003 (ip), vehicle: saline 108 % of control | dose: 1.56 mg/kg/injection, schedule: Q01DX009 (ip), vehicle: saline 111 % of control | dose: 1.56 mg/kg/injection, schedule: Q04DX003 (ip), vehicle: saline 96 % of control | dose: 3.12 mg/kg/injection, schedule: Q01DX009 (ip), vehicle: saline 104 % of control | dose: 3.12 mg/kg/injection, schedule: Q04DX003 (ip), vehicle: saline 105 % of control | dose: 6.25 mg/kg/injection, schedule: Q01DX009 (ip), vehicle: saline 105 % of control | dose: 6.25 mg/kg/injection, schedule: Q04DX003 (ip), vehicle: saline 97 % of control | dose: 12.5 mg/kg/injection, schedule: Q01DX009 (ip), vehicle: saline 109 % of control | dose: 12.5 mg/kg/injection, schedule: Q04DX003 (ip), vehicle: saline 105 % of control | dose: 25.0 mg/kg/injection, schedule: Q04DX003 (ip), vehicle: saline 109 % of control

COC(=O)/C(=C1\C=C(c2ccccc2)C(=O)O1)c1ccccc1
inactive: dose: 25.0 mg/kg/injection, schedule: Q01DX009 (ip), vehicle: Klucel (hydroxypropylcellulose) (HPC) 98 % of control | [1] 103 % of control

Clc1ncn[nH]1
inactive: dose: 100.0 mg/kg/injection, schedule: Q04DX003 (ip), vehicle: saline sonified 101 % of control | dose: 200.0 mg/kg/injection, schedule: Q04DX003 (ip), vehicle: saline sonified 106 % of control | dose: 400.0 mg/kg/injection, schedule: Q04DX003 (ip), vehicle: saline sonified 100 % of control

CCCCCCCCCCCCCCCCCCNC(=S)SCCCC
inactive: dose: 400.0 mg/kg/injection, schedule: Q04DX002 (ip), vehicle: saline + alcohol 100 % of control

CC(=O)OC1CC2C(C)(C)C(=O)C=CC2(C)C2CCC3(C)C(c4ccoc4)OC(=O)C4OC43C12C (centres undefined)
inactive: dose: 100.0 mg/kg/injection, schedule: Q01DX001 (sc), vehicle: steriod suspending solution 104 % of control | dose: 200.0 mg/kg/injection, schedule: Q01DX001 (sc), vehicle: steriod suspending solution 104 % of control | dose: 400.0 mg/kg/injection, schedule: Q01DX001 (sc), vehicle: steriod suspending solution 92 % of control

COC(=O)[C@@H]1c2cc3c(c(O)c2[C@@H](OC2OC(C)C(OC)C(C)(OC)C2OC)C[C@]1(C)O)C(=O)c1c(O)cc2c(c1C3=O)O[C@H]1O[C@]2(C)[C@H](O)[C@@H](N(C)C)[C@@H]1O (some centres undefined)
inactive: dose: 0.2 mg/kg/injection, schedule: Q01DX Z (ip), vehicle: saline 98 % of control | dose: 0.25 mg/kg/injection, schedule: Q01DX009 (ip), vehicle: saline 102 % of control | dose: 0.3 mg/kg/injection, schedule: Q01DX Z (ip), vehicle: saline 116 % of control | dose: 0.44 mg/kg/injection, schedule: Q01DX Z (ip), vehicle: saline 107 % of control | dose: 0.5 mg/kg/injection, schedule: Q01DX009 (ip), vehicle: saline 107 % of control | dose: 0.67 mg/kg/injection, schedule: Q01DX Z (ip), vehicle: saline 112 % of control | dose: 0.8 mg/kg/injection, schedule: Q## X008 (ip), vehicle: saline 113 % of control | dose: 0.8 mg/kg/injection, schedule: Q## X032 (ip), vehicle: saline 113 % of control | dose: 1.0 mg/kg/injection, schedule: Q01DX001 (ip), vehicle: saline 115 % of control | dose: 1.0 mg/kg/injection, schedule: Q01DX009 (ip), vehicle: saline 106 % of control | dose: 1.0 mg/kg/injection, schedule: Q01DX Z (ip), vehicle: saline 107 % of control | dose: 1.5 mg/kg/injection, schedule: Q01DX Z (ip), vehicle: carboxymethylcellulose (CMC) 116 % of control | dose: 2.0 mg/kg/injection, schedule: Q01DX001 (ip), vehicle: saline 120 % of control | dose: 2.0 mg/kg/injection, schedule: Q01DX009 (ip), vehicle: saline 86 % of control | dose: 2.0 mg/kg/injection, schedule: Q01DX Z (ip), vehicle: carboxymethylcellulose (CMC) 102 % of control | dose: 4.0 mg/kg/injection, schedule: Q01DX001 (ip), vehicle: saline 114 % of control | dose: 5.0 mg/kg/injection, schedule: Q01DX001 (ip), vehicle: saline 118 % of control | dose: 8.0 mg/kg/injection, schedule: Q01DX001 (ip), vehicle: saline 108 % of control | dose: 8.0 mg/kg/injection, schedule: Q## X008 (ip), vehicle: saline 109 % of control | dose: 8.0 mg/kg/injection, schedule: Q## X032 (ip), vehicle: saline 103 % of control | dose: 10.0 mg/kg/injection, schedule: Q01DX001 (ip), vehicle: saline 109 % of control

Cc1ccc(S(=O)(=O)N(CCCc2c(C)nc(N)[nH]c2=O)c2ccccc2)cc1
inactive: [1] 102 % of control | [2] 91 % of control | [3] 95 % of control

COC(=O)C(Br)(C(=O)OC)C(c1ccccc1)c1ccccc1
inactive: dose: 100.0 mg/kg/injection, schedule: Q04DX002 (ip), vehicle: other 90 % of control | dose: 200.0 mg/kg/injection, schedule: Q04DX002 (ip), vehicle: other 86 % of control | dose: 400.0 mg/kg/injection, schedule: Q04DX002 (ip), vehicle: other 93 % of control

SCCS
inactive: dose: 50.0 mg/kg/injection, schedule: Q04DX002 (ip), vehicle: saline with Tween-80 101 % of control | dose: 100.0 mg/kg/injection, schedule: Q04DX002 (ip), vehicle: saline with Tween-80 101 % of control | dose: 200.0 mg/kg/injection, schedule: Q04DX002 (ip), vehicle: saline with Tween-80 86 % of control

CC[Si](CC)(CC)c1ccc(CCNCCS)s1
inactive: dose: 75.0 mg/kg/injection, schedule: Q04DX003 (ip), vehicle: saline 95 % of control | dose: 150.0 mg/kg/injection, schedule: Q04DX003 (ip), vehicle: saline 93 % of control

O=[N+]([O-])c1cc(Cl)cc2c1-c1ccc(Cl)cc1/C2=N\O
inactive: dose: 100.0 mg/kg/injection, schedule: Q01DX001 (ip), vehicle: carboxymethylcellulose (CMC) 103 % of control | dose: 200.0 mg/kg/injection, schedule: Q01DX001 (ip), vehicle: carboxymethylcellulose (CMC) 103 % of control | dose: 400.0 mg/kg/injection, schedule: Q01DX001 (ip), vehicle: carboxymethylcellulose (CMC) 103 % of control
